Literature values in US20060134244A1, “Breast health supplement and detoxification preparations” (priority 2004, published 2006).

Tests used:
[1] = system: precancerous lesions of the cervix and laryngeal papillomas; details: pathologies with a human papillomavirus (HPV); reported
[2] = oral administration; reported

Row | unabsorbed EDTA that remains within the digestive tract [2] | SMILES | clinical effectiveness in treating precancerous lesions of the cervix and laryngeal papillomas [1]
1 | – | c1ccc2c(Cc3c[nH]c4ccccc34)c[nH]c2c1 [DIM, 3,3′-diindolylmethane] | clinically effective
2 | 95% | O=C(O)CN(CCN(CC(=O)O)CC(=O)O)CC(=O)O [EDTA, ethylenediamine-N,N,N′,N′-tetraacetic acid] | –
3 | – | OCc1c[nH]c2ccccc12 [Example I3C, indole-3-carbinol] | clinically effective
